How the values were obtained:
Format in all cases: functional
SNB-19 = assay: Growth inhibition of human SNB19 cells after 48 hrs by SRB protein assay; conditions: SNB-19, 48 h
KM12 = assay: Growth inhibition of human KM12 cells after 48 hrs by SRB protein assay; conditions: KM12, 48 h
ACHN = assay: Growth inhibition of human ACHN cells after 48 hrs by SRB protein assay
CCRF-CEM = assay: Growth inhibition of human CCRF-CEM cells after 48 hrs by SRB protein assay
[1] = Growth inhibition of human NCL-H522 cells after 48 hrs by SRB protein assay; conditions: NCL-H522, 48 h
K562 = assay: Growth inhibition of human K562 cells after 48 hrs by SRB protein assay; conditions: K562, 48 h
SF-268 = assay: Growth inhibition of human SF268 cells after 48 hrs by SRB protein assay; conditions: SF-268, 48 h
T47D = assay: Growth inhibition of human T47D cells after 48 hrs by SRB protein assay
MCF7 = assay: Anticancer activity against human MCF7 cells assessed as growth at 100 uM after 48 hrs by SRB protein assay relative to control; conditions: MCF7, 48 h, read-out: Activity
IGROV-1 = assay: Growth inhibition of human IGROV1 cells after 48 hrs by SRB protein assay; conditions: IGROV-1, 48 h
HCT-15 = assay: Growth inhibition of human HCT15 cells after 48 hrs by SRB protein assay; conditions: HCT-15, 48 h
MDA-MB-435 = assay: Growth inhibition of human MDA-MB-435 cells after 48 hrs by SRB protein assay; conditions: MDA-MB-435, 48 h
BT-549 = assay: Growth inhibition of human BT549 cells after 48 hrs by SRB protein assay; conditions: BT-549, 48 h
OVCAR-3 = assay: Growth inhibition of human OVCAR-3 cells after 48 hrs by SRB protein assay; conditions: OVCAR-3, 48 h
U-251 = assay: Growth inhibition of human U251 cells after 48 hrs by SRB protein assay; conditions: U-251, 48 h
NCI/ADR-RES = assay: Growth inhibition of human NCI/ADR-RES cells after 48 hrs by SRB protein assay
SK-MEL-28 = assay: Growth inhibition of human SK-MEL-28 cells after 48 hrs by SRB protein assay; conditions: SK-MEL-28, 48 h
RPMI-8226 = assay: Growth inhibition of human RPMI8226 cells after 48 hrs by SRB protein assay; conditions: RPMI-8226, 48 h
TK-10 = assay: Growth inhibition of human TK10 cells after 48 hrs by SRB protein assay; conditions: TK-10, 48 h
SF-295 = assay: Growth inhibition of human SF295 cells after 48 hrs by SRB protein assay; conditions: SF-295, 48 h
HOP-62 = assay: Growth inhibition of human HOP62 cells after 48 hrs by SRB protein assay; conditions: HOP-62, 48 h
A549 = assay: Growth inhibition of human A549 cells after 48 hrs by SRB protein assay; conditions: A549, 48 h
RXF 393 = assay: Growth inhibition of human RXF393 cells after 48 hrs by SRB protein assay; conditions: RXF 393, 48 h
SW-620 = assay: Growth inhibition of human SW620 cells after 48 hrs by SRB protein assay; conditions: SW-620, 48 h
Hs-578T = assay: Growth inhibition of human HS578T cells after 48 hrs by SRB protein assay
OVCAR-5 = assay: Growth inhibition of human OVCAR5 cells after 48 hrs by SRB protein assay; conditions: OVCAR-5, 48 h
OVCAR-8 = assay: Growth inhibition of human OVCAR8 cells after 48 hrs by SRB protein assay; conditions: OVCAR-8, 48 h
SF-539 = assay: Growth inhibition of human SF539 cells after 48 hrs by SRB protein assay; conditions: SF-539, 48 h
DU-145 = assay: Growth inhibition of human DU145 cells after 48 hrs by SRB protein assay; conditions: DU-145, 48 h
PC-3 = assay: Growth inhibition of human PC3 cells after 48 hrs by SRB protein assay; conditions: PC-3, 48 h
MOLT-4 = assay: Growth inhibition of human MOLT4 cells after 48 hrs by SRB protein assay; conditions: MOLT-4, 48 h
[2] = Growth inhibition of human NCL-H322M cells after 48 hrs by SRB protein assay
SK-MEL-2 = assay: Growth inhibition of human SK-MEL-2 cells after 48 hrs by SRB protein assay; conditions: SK-MEL-2, 48 h
[3] = read-out: LC50 (the source's name)

`Clc1nc(Cl)c2ncn(Cc3ccc(Cn4cnc5c(Cl)nc(Cl)nc54)cc3)c2n1` gave a TGI (SNB-19) of 21.9 µM, a CC50 (SNB-19; [3]) of 46.8 µM and a GI50 (KM12) of 14.1 µM. For the same molecule, the LC50 (concentration killing 50% of cells) (KM12) was 52.5 µM, the TGI (KM12) was 27.5 µM and the GI50 (ACHN) was 12.6 µM. For the same molecule, the LC50 (ACHN) was 50.1 µM, the TGI (ACHN) was 25.1 µM and the GI50 (CCRF-CEM) was 10.2 µM. The TGI (CCRF-CEM) was 22.9 µM, the CC50 (CCRF-CEM; [3]) was 51.3 µM and the GI50 [1] was 12.3 µM. It also gave an LC50 [1] of 52.5 µM, a TGI [1] of 25.7 µM and a GI50 (K562) of 2880 nM. The TGI (K562) was 16.6 µM, the CC50 (K562; [3]) was 40.7 µM and the GI50 (SF-268) was 15.5 µM. The LC50 (SF-268) was over 100 µM, the TGI (SF-268) was 38.9 µM and the GI50 (T47D) was 1620 nM. The LC50 (T47D) was 42.6 µM, the TGI (T47D) was 13.5 µM and the growth at 100 µM (MCF7) was 0%. For the same molecule, the GI50 (IGROV-1) was 12.9 µM, the LC50 (50% lethal concentration) (IGROV-1) was 50.1 µM and the TGI (IGROV-1) was 25.1 µM. It also gave a GI50 (HCT-15) of 13.2 µM, an LC50 (HCT-15) of 51.3 µM and a TGI (HCT-15) of 25.7 µM. The GI50 (MDA-MB-435) was 16.6 µM, the LC50 (MDA-MB-435) was 61.7 µM and the TGI (MDA-MB-435) was 31.6 µM. For the same molecule, the GI50 (BT-549) was under 10 nM, the TGI (BT-549) was 19.1 µM and the CC50 (BT-549; [3]) was 43.6 µM. For the same molecule, the GI50 (OVCAR-3) was 13.5 µM, the LC50 (OVCAR-3) was 51.3 µM and the TGI (OVCAR-3) was 26.3 µM. The GI50 (U-251) was 13.8 µM, the TGI (U-251) was 26.9 µM and the CC50 (U-251; [3]) was 51.3 µM. It also gave a GI50 (NCI/ADR-RES) of 13.8 µM, an LC50 (NCI/ADR-RES) of 60.2 µM and a TGI (NCI/ADR-RES) of 28.8 µM. The GI50 (SK-MEL-28) was under 10 nM, the LC50 (SK-MEL-28) was 42.6 µM and the TGI (SK-MEL-28) was 18.2 µM. It also gave a GI50 (RPMI-8226) of 6.45 µM, a TGI (RPMI-8226) of 25.1 µM and a CC50 (RPMI-8226; [3]) of 75.9 µM. The GI50 (TK-10) was 13.2 µM, the LC50 (50% lethal concentration) (TK-10) was 51.3 µM and the TGI (TK-10) was 26.3 µM. It also gave a GI50 (SF-295) of 19.1 µM, an LC50 (SF-295) of 85.1 µM and a TGI (SF-295) of 40.7 µM. For the same molecule, the LC50 (HOP-62) was 51.3 µM, the TGI (HOP-62) was 26.3 µM and the LC50 (A549) was 50.1 µM. The TGI (A549) was 25.1 µM, the GI50 (RXF 393) was under 10 nM and the CC50 (RXF 393; [3]) was 20.9 µM. For the same molecule, the GI50 (SW-620) was under 10 nM, the TGI (SW-620) was 2630 nM and the CC50 (SW-620; [3]) was 8.31 µM. The GI50 (Hs-578T) was under 10 nM, the LC50 (concentration killing 50% of cells) (Hs-578T) was 43.6 µM and the TGI (Hs-578T) was 16.2 µM. For the same molecule, the TGI (OVCAR-5) was 26.3 µM, the CC50 (OVCAR-5; [3]) was 51.3 µM and the GI50 (OVCAR-8) was 3.02 µM. It also gave an LC50 (OVCAR-8) of 49 µM, a TGI (OVCAR-8) of 8.13 µM and an LC50 (SF-539) of 37.1 µM. For the same molecule, the TGI (SF-539) was 13.8 µM, the GI50 (DU-145) was under 10 nM and the TGI (DU-145) was 4.16 µM. For the same molecule, the CC50 (DU-145; [3]) was 26.3 µM, the GI50 (PC-3) was 12.9 µM and the TGI (PC-3) was 25.7 µM. The CC50 (PC-3; [3]) was 50.1 µM, the GI50 (MOLT-4) was 7.94 µM and the LC50 (MOLT-4) was 45.7 µM. The TGI (MOLT-4) was 20.9 µM, the TGI [2] was 33.9 µM and the CC50 [2, 3] was 91.2 µM. For the same molecule, the TGI (SK-MEL-2) was 23.4 µM and the CC50 (SK-MEL-2; [3]) was 49 µM.
